In US20080139458A1, “Methods of Treatment For Injured or Diseased Joints” (priority 2004, published 2008):
“And” between values parts separate entries of the source, which are not always exact repeats. Equal entries are not always repeated. Where two headings read alike, the source gives them in different places. Peptide text beside a SMILES is read from it. * marks the point of attachment. Cbz = O=C(OCc1ccccc1)*; CH2F = FC*

What was measured:
[1] = tested on: pooled rheumatoid arthritis (RA) synovial fluid (SF) aspirates supplemented with purified human lubricin; type: biochemical; conditions: for Change in coefficient of friction Δμ ± S.D.: 37° C., E-64 10 μM, Z-LLL-FMK 20 μM, PMSF 25 μM, EDTA 10 mM, Lubricin = no inhibitor
Procedure: (§1) The boundary lubricating abilities of protease-treated human lubricin and BSF were measured using a friction apparatus as reported by Davis et al., J. Biomech. Eng. 101:185-192, 1979. Lubricant (200 μL) was applied between a bearing of latex and a ring of polished glass with a contact area of 1.59 cm^2. The latex was oscillated, under a pressure of 0.35×10^6 N/m^2, against the polished glass with an entraining velocity of 0.37 mm/sec. The bearing system was axially loaded within a gimbals system free to rotate around two perpendicular horizontal axes. The friction apparatus recorded displacements of the gimbals system around the vertical loading axis through a linear displacement voltage transducer, where the output was directly proportional to the frictional torque (F). A bearing load of 70 newtons (N) was related to the coefficient of friction (μ) via Amonton's law, F=μN.
(§2) The μ of the lubricant was recorded at room temperature and was preceded by a baseline measurement of μ with normal saline (NS). Lubrication was manifested by a reduction in μ by the lubricant relative to that of NS. Negative Δμ (−Δμ) values indicate lubrication whereas positive Δμ (+Δμ) indicate friction. Addition of 200 μL of lubricant was followed by bringing the bearing surfaces close enough so that the solution wet both surfaces. After 5 min for equilibration, the latex-coated bearing was brought to rest on the glass as it was oscillating. Voltage measurements were recorded at 1, 3, and 5 min. After 5 min, the surfaces were separated for 2 min and then brought back together for three additional 5 min session. The 3 and 5 min μ values of the last two 5 min session were recorded and averaged, and data were later combined with another duplicate experiment providing 8 distinct measurements of μ.
(§3) The SF aspirates from patients diagnosed with a Noyes criteria grade III or IV OA (n=60), with RA (n=20), or with KJS (n=23) were pooled in equal proportions. […] The lubricin-supplemented pooled OA, RA, and KJS SF aspirates were treated at 37° C. and sampled after 24, 48, and 96 hours. The friction analysis of the sampled SF was conducted as described above. Normal human SF was obtained from cartilage allograft donors and was utilized as a control.
(§4) The treatments were performed at 37° C., and SF was sampled at 24, 48, and 96 hours post-treatment. The in vitro friction assay of sampled SF was performed as described above.

[2] = tested on: pooled knee joint synovitis (KJS) synovial fluid (SF) aspirates supplemented with purified human lubricin; type: biochemical; conditions: for Change in coefficient of friction Δμ ± S.D.: 37° C., E-64 10 μM, Z-LLL-FMK 20 μM, PMSF 25 μM, EDTA 10 mM, Lubricin = no inhibitor; for Lubricating ability compared to controls without enzyme inhibitors: KJS SF at 24, 48, and 96 hours, P<0.001
Procedure: as §1, §2, §3, §4

[3] = at 24, 48, and 96 hours, P<0.001

| Structure (SMILES) | Change in coefficient of friction Δμ ± S.D. ([1]; 0 hrs) | Change in coefficient of friction Δμ ± S.D. ([1]; 24 hrs) | Change in coefficient of friction Δμ ± S.D. ([1]; 48 hrs) | Change in coefficient of friction Δμ ± S.D. ([1]; 96 hrs) | Δμ compared to lubricin-supplemented pooled RA SF aspirates [1, 3] | average increase in Δμ ([1]; at 24 hours, RA SF) [%] | average increase in Δμ ([1]; at 48 hours, RA SF) [%] | average increase in Δμ ([1]; at 96 hours, RA SF) [%] | Change in coefficient of friction Δμ ± S.D. ([2]; 0 hrs) | Change in coefficient of friction Δμ ± S.D. ([2]; 24 hrs) | Change in coefficient of friction Δμ ± S.D. ([2]; 48 hrs) | Change in coefficient of friction Δμ ± S.D. ([2]; 96 hrs) | Lubricating ability compared to controls without enzyme inhibitors [2] | average increase in Δμ ([2]; at 24 hours, KJS SF) [%] | average increase in Δμ ([2]; at 48 hours, KJS SF) [%] | average increase in Δμ ([2]; at 96 hours, KJS SF) [%] | average increase in Δμ [1] | Δμ compared to lubricin-supplemented pooled RA SF aspirates [1] | average increase in Δμ [2] | Δμ compared to lubricin-supplemented pooled KJS SF aspirates [2] |
| --- | --- | --- | --- | --- | --- | --- | --- | --- | --- | --- | --- | --- | --- | --- | --- | --- | --- | --- | --- | --- |
| CC(C)C[C@H](NC(=O)[C@H](CC(C)C)NC(=O)[C@H](CC(C)C)NC(=O)OCc1ccccc1)C(=O)CF [Z-LLL-FMK, Z-Leu-Leu-Leu-fluoromethyl ketone] (Cbz-Leu-Leu-Leu-CH2F) | −0.060 ± 0.002 | −0.049 ± 0.002 | −0.019 ± 0.001 | −0.005 ± 0.003 | significant decrease in Δμ | 18.3 | 68.3 | 91.7 | −0.060 ± 0.002 | −0.035 ± 0.002 | −0.031 ± 0.003 | −0.028 ± 0.002 | preserved lubricating ability | 41.7 | 48.3 | 53.3 | – | – | – | – |
| O=S(=O)(F)Cc1ccccc1 [PMSF, phenylmethanesulfonyl fluoride] | −0.060 ± 0.002 | −0.009 ± 0.009 | −0.008 ± 0.004 | −0.009 ± 0.001 | significant decrease in Δμ | 85.0 | 86.3 | 85.0 | −0.060 ± 0.001 | −0.033 ± 0.006 | −0.030 ± 0.005 | −0.027 ± 0.005 | preserved lubricating ability | 45.0 | 50.0 | 55.0 | – | – | – | – |
| CC(C)C[C@H](NC(=O)[C@H]1O[C@@H]1C(=O)O)C(=O)NCCCCN=C(N)N (relative stereo) [E-64, L-trans-epoxysuccinyl-leucyl-amido-(4-guanidino)-butane] | −0.060 ± 0.002 | −0.053 ± 0.004 | −0.024 ± 0.002 | −0.014 ± 0.004 | significant decrease in Δμ | 11.7 | 60.0 | 76.7 | −0.059 ± 0.004 | −0.042 ± 0.005 | −0.039 ± 0.007 | −0.034 ± 0.002 | preserved lubricating ability | 32.7 | 38.5 | 42.4 | – | – | – | – |
| O=C(O)CN(CCN(CC(=O)O)CC(=O)O)CC(=O)O [EDTA] | – | – | – | – | – | – | – | – | – | – | – | – | – | – | – | – | 90.0% and 88.3% and 128.3% | significant decrease in Δμ | 50.0% and 80.0% and 85.0% | significant (P<0.01) decrease in Δμ |
